The values that follow come from paper PMC10709440, “High-throughput ligand profile characterization in novel cell lines expressing seven heterologous insect olfactory receptors for the detection of volatile plant biomarkers” (Scientific Reports, 2023).

Assay [1] deals with T1, Drosophila OR71a (Drosophila melanogaster, UniProt Q9VUK5).
T1 construct: expressed in transfected cells
T1 sequence (Q9VUK5 1-378): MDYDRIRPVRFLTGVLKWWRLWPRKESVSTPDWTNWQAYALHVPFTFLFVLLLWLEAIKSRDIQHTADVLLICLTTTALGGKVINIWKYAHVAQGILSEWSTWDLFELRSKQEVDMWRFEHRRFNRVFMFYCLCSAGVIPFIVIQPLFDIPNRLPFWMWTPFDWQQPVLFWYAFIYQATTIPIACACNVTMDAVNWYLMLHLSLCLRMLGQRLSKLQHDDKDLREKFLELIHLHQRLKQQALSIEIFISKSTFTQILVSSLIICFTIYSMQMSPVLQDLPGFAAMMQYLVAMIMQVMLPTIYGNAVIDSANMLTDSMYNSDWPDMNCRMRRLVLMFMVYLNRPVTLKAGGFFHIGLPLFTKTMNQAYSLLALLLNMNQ
T1 sequence (Q9VNB5 1-486 partner): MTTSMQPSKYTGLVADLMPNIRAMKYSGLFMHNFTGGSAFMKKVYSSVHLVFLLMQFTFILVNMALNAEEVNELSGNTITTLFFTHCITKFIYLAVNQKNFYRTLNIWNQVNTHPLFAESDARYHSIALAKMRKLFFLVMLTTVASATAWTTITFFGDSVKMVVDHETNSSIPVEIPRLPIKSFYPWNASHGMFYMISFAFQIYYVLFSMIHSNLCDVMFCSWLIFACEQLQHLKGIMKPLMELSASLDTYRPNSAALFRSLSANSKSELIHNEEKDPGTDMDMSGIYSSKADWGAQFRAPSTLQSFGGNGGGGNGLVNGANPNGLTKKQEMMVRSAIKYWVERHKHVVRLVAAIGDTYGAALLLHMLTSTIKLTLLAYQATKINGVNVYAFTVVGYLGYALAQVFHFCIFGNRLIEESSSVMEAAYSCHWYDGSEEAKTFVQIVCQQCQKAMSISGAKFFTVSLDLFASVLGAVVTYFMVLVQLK
Briefly: Calcium ion fluorescence (GCaMP6) assay, OR71a stable HEK293 cell line. Format: cell-based. The note with it: for Average response: VUAA1-normalized response, mean of biological replicates; for activation at 1 µM / activation at 10 µM / activation at 100 µM: HEK293, read-out: OR71a response (VUAA1-normalized response). A digest of the protocol: (§1)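 Responses are VUAA1-normalized ΔF: each VOC-evoked calcium signal, (FMAX−F0)/F0 over 30 s after injection, divided by the same line's mean 50 µM VUAA1 response. Cells were doxycycline-induced HEK293 with GCaMP6 and the cognate Drosophila OR, in HEPES buffer pH 7.3; ligands tested 0.01–100 μM.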

Assay [2] has as its target T2, Drosophila OR98a (Drosophila melanogaster, UniProt Q9VAZ3).
T2 construct: expressed in transfected cells
T2 sequence (Q9VAZ3 1-397): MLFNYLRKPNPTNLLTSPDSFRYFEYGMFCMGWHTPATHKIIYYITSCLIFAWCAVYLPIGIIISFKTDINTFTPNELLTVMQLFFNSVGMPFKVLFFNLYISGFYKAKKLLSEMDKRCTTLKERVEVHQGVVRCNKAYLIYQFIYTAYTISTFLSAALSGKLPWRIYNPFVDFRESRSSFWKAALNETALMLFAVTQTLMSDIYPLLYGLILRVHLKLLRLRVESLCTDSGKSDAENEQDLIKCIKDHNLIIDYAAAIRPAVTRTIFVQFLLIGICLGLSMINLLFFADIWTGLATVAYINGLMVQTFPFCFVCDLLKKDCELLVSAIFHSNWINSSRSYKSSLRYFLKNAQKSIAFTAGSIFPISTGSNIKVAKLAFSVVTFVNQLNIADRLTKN
T2 sequence (Q9VNB5 1-486 partner): T1 sequence (Q9VNB5 1-486 partner)
Briefly: Calcium ion fluorescence (GCaMP6) assay, OR98a stable HEK293 cell line. Type of assay: cell-based. The following applies: for Average response: average of biological replicates, fraction of VUAA1 response. A digest of the protocol: as §1

The mark [3] stands for this setting: ligand concentration 1 (unit not given), 0.05 threshold, values below shown as 0.
Where [4] appears, read: ligand concentration 10 (unit not given), 0.05 threshold, values below shown as 0.
[5] abbreviates: ligand concentration 100 (unit not given), 0.05 threshold, values below shown as 0.
Setting [6] is: HEK293, read-out: Average response.
Where [7] appears, read: ligand concentration 1 (unit not given), threshold 0.05, below shown as 0.
Where [8] appears, read: ligand concentration 10 (unit not given), threshold 0.05, below shown as 0.
Where [9] appears, read: ligand concentration 100 (unit not given), threshold 0.05, below shown as 0.
Where [10] appears, read: HEK293, read-out: OR98a response (VUAA1-normalized response).
Where [11] appears, read: concentration 1, normalized fluorescence change, values below 0.05 threshold given as 0.
The mark [12] stands for this setting: concentration 10, normalized fluorescence change, values below 0.05 threshold given as 0.
[13] abbreviates: concentration 100, normalized fluorescence change, values below 0.05 threshold given as 0.
[14] abbreviates: HEK293, read-out: OR98a Average response (VUAA1-normalized).

Each structure is given as a SMILES string. Like-named read-outs stand apart in the source and are kept apart here.

Turning to `C=Cc1ccccc1` [styrene], the “OR71a response (VUAA1-normalized) at 1 μM” value in assay [1] (OR71a cell line, VOC concentration 1 μM) is recorded as 0.00. The “OR71a response (VUAA1-normalized) at 10 μM” value in assay [1] (OR71a cell line, VOC concentration 10 μM) is listed as 0.00. In assay [1] (OR71a cell line, VOC concentration 100 μM), the “OR71a response (VUAA1-normalized) at 100 μM” value worked out at 0.00. Also, the Average response in assay [1] (OR71a cell line, cc. 1 µM) is given as 0.027; in assay [1] (OR71a cell line, cc. 10 µM), 0.0458; in assay [1] (OR71a cell line, cc. 100 µM) it was 0.00724. Moreover, the “DF norm AVERAGE OR71a” value in assay [1] (setting [3]), in assay [1] (setting [4]) and in assay [1] (setting [5]) was 0 each time. Moreover, the activation at 1 µM in assay [2] (setting [6]) amounted to 4.43%. Moreover, the activation at 10 µM in assay [2] (setting [6]) came out at 0%. In addition, the activation at 100 µM in assay [2] (setting [6]) was found to be 1.16%. Also, in assay [2] (OR98a cell line, VOC concentration 1 μM), the “OR98a response (VUAA1-normalized) at 1 μM” value was 0.00. Also, in assay [2] (OR98a cell line, VOC concentration 10 μM), the “OR98a response (VUAA1-normalized) at 10 μM” value stood at 0.00. Moreover, the “OR98a response (VUAA1-normalized) at 100 μM” value in assay [2] (OR98a cell line, VOC concentration 100 μM) stood at 0.00. For the same compound, the “DF norm AVERAGE OR98a” value in assay [2] (setting [3]), in assay [2] (setting [4]) and in assay [2] (setting [5]) was 0 in each case.
Take `CC/C=C/CCO` [e3-hexenol]: the Average response in assay [1] (OR71a cell line, cc. 1 µM) is listed as 0.00; in assay [1] (OR71a cell line, cc. 10 µM), 0.0432; in assay [1] (OR71a cell line, cc. 100 µM), 0.0275; in assay [2] (cc. 1 µM, OR98a cell line) it was 0.00; in assay [2] (cc. 10 µM, OR98a cell line) it was 0.00; in assay [2] (cc. 100 µM, OR98a cell line) it was 0.00. Moreover, the “DF norm AVERAGE OR71a” value in assay [1] (setting [7]), in assay [1] (setting [8]) and in assay [1] (setting [9]) was 0 in each case. The “DF norm AVERAGE OR98a” value in assay [2] (setting [7]), in assay [2] (setting [8]) and in assay [2] (setting [9]) was 0 throughout.
`CC(=O)c1ccccc1` [acetophenone]: the figures for the activation at 1 µM in assay [1], in assay [2] (setting [6]) and in assay [2] (setting [10]) were 0%, 4% and 0%, respectively. The activation at 10 µM in assay [1], in assay [2] (setting [6]) and in assay [2] (setting [10]) was 0% each time. Moreover, the activation at 100 µM in assay [1], in assay [2] (setting [6]) and in assay [2] (setting [10]) was 0% in each case. Also, the Average response in assay [1] (OR71a cell line, cc. 1 µM) worked out at 0.00; in assay [1] (OR71a cell line, cc. 10 µM), 0.00; in assay [1] (OR71a cell line, cc. 100 µM) it was 0.00. For the same compound, the “DF norm AVERAGE OR71a” value in assay [1] (setting [7]), in assay [1] (setting [8]) and in assay [1] (setting [9]) was 0 in each case. Also, the “DF norm AVERAGE OR98a” value in assay [2] (setting [7]), in assay [2] (setting [8]) and in assay [2] (setting [9]) was 0 throughout.
For `CCCCCCCCCC=O` [decanal], the figures for the activation at 1 µM in assay [1], in assay [2] (setting [6]) and in assay [2] (setting [10]) were 0%, 3% and 0%, respectively. The activation at 10 µM in assay [1], in assay [2] (setting [6]) and in assay [2] (setting [10]) was 0% throughout. Also, the activation at 100 µM in assay [1], in assay [2] (setting [6]) and in assay [2] (setting [10]) was 0% in each case. For the same compound, the Average response came to 0.00 in assay [1] (OR71a cell line, cc. 1 µM); 0.00 in assay [1] (OR71a cell line, cc. 10 µM); 0.0139 in assay [1] (OR71a cell line, cc. 100 µM). Further, the “DF norm AVERAGE OR71a” value in assay [1] (setting [7]), in assay [1] (setting [8]) and in assay [1] (setting [9]) was 0 in each case. In addition, the “DF norm AVERAGE OR98a” value in assay [2] (setting [7]), in assay [2] (setting [8]) and in assay [2] (setting [9]) was 0 in each case.
With `CCCCCC(=O)CC` [3-octanone], the activation at 1 µM in assay [1], in assay [2] (setting [6]), in assay [2] (setting [14]) and in assay [2] (setting [10]) was 0% each time. Besides, the activation at 10 µM in assay [1], in assay [2] (setting [6]), in assay [2] (setting [14]) and in assay [2] (setting [10]) was 0% in each case. Also, the activation at 100 µM in assay [1] was determined as 0%; in assay [2] (setting [6]), 16%; in assay [2] (setting [14]) it was 16%; in assay [2] (setting [10]) it was 16%. For the same compound, the Average response in assay [1] (OR71a cell line, cc. 1 µM) stood at 0.00; in assay [1] (OR71a cell line, cc. 10 µM), 0.00; in assay [1] (OR71a cell line, cc. 100 µM) it was 0.00. Further, the “DF norm AVERAGE OR71a” value in assay [1] (setting [11]), in assay [1] (setting [12]) and in assay [1] (setting [13]) was 0 each time. The “DF norm AVERAGE OR98a” value in assay [2] (setting [11]) stood at 0; in assay [2] (setting [12]), 0; in assay [2] (setting [13]), 0.1573.
With `CC1=CCC2C(C1)C2(C)C` (stereo not drawn) [3-carene], the activation at 1 µM in assay [1], in assay [2] (setting [6]) and in assay [2] (setting [10]) was 0% throughout. Moreover, the activation at 10 µM in assay [1] turned out to be 0%; in assay [2] (setting [6]), 1.26%; in assay [2] (setting [10]), 0%. The activation at 100 µM in assay [1], in assay [2] (setting [6]) and in assay [2] (setting [10]) was 0% throughout. The Average response in assay [1] (OR71a cell line, cc. 1 µM) came out at 0.00; in assay [1] (OR71a cell line, cc. 10 µM) it was 0.00; in assay [1] (OR71a cell line, cc. 100 µM), 0.00. Also, the “DF norm AVERAGE OR71a” value in assay [1] (setting [11]), in assay [1] (setting [12]) and in assay [1] (setting [13]) was 0 each time. Also, the “DF norm AVERAGE OR98a” value in assay [2] (setting [11]), in assay [2] (setting [12]) and in assay [2] (setting [13]) was 0 throughout.
With `CCCCC(C)=O` [2-hexanone], the activation at 1 µM in assay [1] was 8%; in assay [2] (setting [6]), 3%; in assay [2] (setting [10]), 0%. Moreover, the values for the activation at 10 µM in assay [1], in assay [2] (setting [6]) and in assay [2] (setting [10]) were 0%, 4.36% and 0%, respectively. Also, the activation at 100 µM came out at 0% in assay [1], 3.5% in assay [2] (setting [6]) and 0% in assay [2] (setting [10]). Moreover, the Average response in assay [1] (OR71a cell line, cc. 1 µM) worked out at 0.08; in assay [1] (OR71a cell line, cc. 10 µM), 0.00; in assay [1] (OR71a cell line, cc. 100 µM) it was 0.00. For the same compound, the “DF norm AVERAGE OR71a” value worked out at 0.08158 in assay [1] (setting [11]), 0 in assay [1] (setting [12]) and 0 in assay [1] (setting [13]). The “DF norm AVERAGE OR98a” value in assay [2] (setting [11]), in assay [2] (setting [12]) and in assay [2] (setting [13]) was 0 in each case.
